# In US11173151B2, “Substituted triazole derivatives and uses thereof” (BAYER AKTIENGESELLSCHAFT, priority 2017, dated 2021):
# Legend:
# human V2 receptor = target: T1, human V2 receptor (Homo sapiens, UniProt P30518); assay: Cellular in vitro assay for determining vasopressin receptor activity, V2 receptor cell line (CHO, CRE-luciferase); type: cell-based; conditions: CHO cell line transfected with human V2 receptor; [Arg8]-vasopressin at EC50 concentration, 3 hours; read-out: IC50 hV2
# T1 construct: expressed in transfected cells; host or cells: CHO K1 (ATCC) expressing firefly luciferase under a CRE-responsive promoter
# human V1a receptor = target: T2, human V1a receptor (Homo sapiens, UniProt P37288); assay: Cellular in vitro assay for determining vasopressin receptor activity, V1a receptor cell line (CHO, aequorin luminescence); type: cell-based; conditions: for IC50: CHO cell line transfected with human V1a receptor, [Arg]-vasopressin at EC50 concentration, read-out: IC50 hV1a; for ratio IC50 hV2/hV1a: selectivity ratio IC50 hV2 / IC50 hV1a
# T2 construct: expressed in transfected cells; host or cells: CHO K1 (ATCC), also stably transfected with a modified aequorin
# Summary of the method: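 IC50 from inhibition of [Arg]-vasopressin (EC50 concentration)-evoked aequorin luminescence in CHO K1 cells, with 10-min compound pretreatment.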
# T1 sequence (P30518 whole entry): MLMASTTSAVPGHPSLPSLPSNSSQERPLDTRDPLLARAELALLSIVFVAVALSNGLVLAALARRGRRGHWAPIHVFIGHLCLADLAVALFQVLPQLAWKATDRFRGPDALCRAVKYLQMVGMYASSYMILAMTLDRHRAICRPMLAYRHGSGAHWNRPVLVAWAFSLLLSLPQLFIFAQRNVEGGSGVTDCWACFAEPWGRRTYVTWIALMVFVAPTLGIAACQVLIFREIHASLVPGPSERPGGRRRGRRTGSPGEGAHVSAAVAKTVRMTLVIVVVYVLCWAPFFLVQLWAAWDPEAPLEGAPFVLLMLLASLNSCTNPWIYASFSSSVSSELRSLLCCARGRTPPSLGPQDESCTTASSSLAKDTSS
# T2 sequence (P37288 whole entry): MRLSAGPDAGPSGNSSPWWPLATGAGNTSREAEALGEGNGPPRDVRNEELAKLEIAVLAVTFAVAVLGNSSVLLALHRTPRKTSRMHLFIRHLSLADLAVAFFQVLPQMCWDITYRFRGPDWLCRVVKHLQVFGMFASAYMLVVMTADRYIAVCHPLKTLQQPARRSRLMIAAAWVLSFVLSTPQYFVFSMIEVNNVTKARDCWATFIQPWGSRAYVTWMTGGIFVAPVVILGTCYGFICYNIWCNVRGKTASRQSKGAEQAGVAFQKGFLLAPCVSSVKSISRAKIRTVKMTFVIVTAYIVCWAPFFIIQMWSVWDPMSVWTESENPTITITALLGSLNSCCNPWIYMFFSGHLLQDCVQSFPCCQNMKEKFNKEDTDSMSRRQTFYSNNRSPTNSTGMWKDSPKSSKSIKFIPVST
SMILES,IC50 (human V2 receptor),IC50 (human V1a receptor),ratio IC50 hV2/hV1a (human V1a receptor)
"Cc1cc(NC(=O)c2ccccc2-n2cnc(Cn3nc(-c4ccc(Cl)cc4)n(C[C@H](O)C(F)(F)F)c3=O)n2)ccn1 [Example 254, 2-[3-({3-(4-Chlorophenyl)-5-oxo-4-[(2S)-3,3,3-trifluoro-2-hydroxypropyl]-4,5-dihydro-1H-1,2,4-triazol-1-yl}methyl)-1H-1,2,4-triazol-1-yl]-N-(2-methylpyridin-4-yl)benzamide]",670 nM,2.25 nM,297.8
"CC1=C(C)CN(C(=O)c2ccccc2-n2cnc(Cn3nc(-c4ccc(Cl)cc4)n(C[C@H](O)C(F)(F)F)c3=O)n2)CC1 [Example 260, 5-(4-Chlorophenyl)-2-[(1-{2-[(4,5-dimethyl-3,6-dihydropyridin-1(2H)-yl)carbonyl]phenyl}-1H-1,2,4-triazol-3-yl)methyl]-4-[(2S)-3,3,3-trifluoro-2-hydroxypropyl]-2,4-dihydro-3H-1,2,4-triazol-3-one]",760 nM,25.5 nM,29.8
"CCN(OC)C(=O)c1ccccc1-n1cnc(Cn2nc(-c3ccc(Cl)cc3)n(C[C@H](O)C(F)(F)F)c2=O)n1 [Example 261, 2-[3-({3-(4-Chlorophenyl)-5-oxo-4-[(2S)-3,3,3-trifluoro-2-hydroxypropyl]-4,5-dihydro-1H-1,2,4-triazol-1-yl}methyl)-1H-1,2,4-triazol-1-yl]-N-ethyl-N-methoxybenzamide]",450 nM,1.45 nM,310.3
"O=C(c1ccccc1-n1cnc(Cn2nc(-c3ccc(Cl)cc3)n(C[C@H](O)C(F)(F)F)c2=O)n1)N1C[C@@H]2C[C@H]1CO2 [Example 262, 5-(4-Chlorophenyl)-2-[(1-{2-[(1S,4S)-2-oxa-5-azabicyclo[2.2.1]hept-5-ylcarbonyl]phenyl}-1H-1,2,4-triazol-3-yl)methyl]-4-[(2S)-3,3,3-trifluoro-2-hydroxypropyl]-2,4-dihydro-3H-1,2,4-triazol-3-one]",880 nM,3.4 nM,258.8
"O=CN1CCN(C(=O)c2ccccc2-n2cnc(Cn3nc(-c4ccc(Cl)cc4)n(C[C@H](O)C(F)(F)F)c3=O)n2)CC1 [Example 263, 4-{2-[3-({3-(4-Chlorophenyl)-5-oxo-4-[(2S)-3,3,3-trifluoro-2-hydroxypropyl]-4,5-dihydro-1H-1,2,4-triazol-1-yl}methyl)-1H-1,2,4-triazol-1-yl]benzoyl}piperazine-1-carbaldehyde]",8350 nM,32.5 nM,256.9
"CN(C)C(=O)c1ccccc1-n1cnc(Cn2nc(-c3ccc(Cl)cc3)n(C[C@H](O)C(F)(F)F)c2=O)n1 [Example 264, 2-[3-({3-(4-Chlorophenyl)-5-oxo-4-[(2S)-3,3,3-trifluoro-2-hydroxypropyl]-4,5-dihydro-1H-1,2,4-triazol-1-yl}methyl)-1H-1,2,4-triazol-1-yl]-N,N-dimethylbenzamide]",1260 nM,2.45 nM,512.2
"O=C1CCN(C(=O)c2ccccc2-n2cnc(Cn3nc(-c4ccc(Cl)cc4)n(C[C@H](O)C(F)(F)F)c3=O)n2)CCN1 [Example 265, 1-{2-[3-({3-(4-Chlorophenyl)-5-oxo-4-[(2S)-3,3,3-trifluoro-2-hydroxypropyl]-4,5-dihydro-1H-1,2,4-triazol-1-yl}methyl)-1H-1,2,4-triazol-1-yl]benzoyl}-1,4-diazepan-5-one]",8800 nM,34.5 nM,255.1
"CC1CCN(C(=O)c2ccccc2-n2cnc(Cn3nc(-c4ccc(Cl)cc4)n(C[C@H](O)C(F)(F)F)c3=O)n2)C(C)C1 (stereo partly drawn) [Example 266, 5-(4-Chlorophenyl)-2-[(1-{2-[(2,4-dimethylpiperidin-1-yl)carbonyl]phenyl}-1H-1,2,4-triazol-3-yl)methyl]-4-[(2S)-3,3,3-trifluoro-2-hydroxypropyl]-2,4-dihydro-3H-1,2,4-triazol-3-one]",860 nM,3.85 nM,223.4
CC1CN(C(=O)c2ccccc2-n2cnc(Cn3nc(-c4ccc(Cl)cc4)n(C[C@H](O)C(F)(F)F)c3=O)n2)CCN1C (stereo partly drawn) [Example 267],4000 nM,33.5 nM,119.4

# These reach a lower IC50 (human V2 receptor). Values come first.
IC50 (human V2 receptor),IC50 (human V1a receptor),ratio IC50 hV2/hV1a (human V1a receptor),SMILES
65 nM,1.2 nM,54.2,"O=C(Nc1cccnc1)c1ccccc1-n1cnc(Cn2nc(-c3ccc(Cl)cc3)n(C[C@H](O)C(F)(F)F)c2=O)n1 [Example 248, 2-[3-({3-(4-Chlorophenyl)-5-oxo-4-[(2S)-3,3,3-trifluoro-2-hydroxypropyl]-4,5-dihydro-1H-1,2,4-triazol-1-yl}methyl)-1H-1,2,4-triazol-1-yl]-N-(pyridin-3-yl)benzamide]"
136 nM,2.8 nM,48.6,"Cc1ccc(NC(=O)c2ccccc2-n2cnc(Cn3nc(-c4ccc(Cl)cc4)n(C[C@H](O)C(F)(F)F)c3=O)n2)cn1 [Example 249, 2-[3-({3-(4-Chlorophenyl)-5-oxo-4-[(2S)-3,3,3-trifluoro-2-hydroxypropyl]-4,5-dihydro-1H-1,2,4-triazol-1-yl}methyl)-1H-1,2,4-triazol-1-yl]-N-(6-methylpyridin-3-yl)benzamide]"
87 nM,4.45 nM,19.6,"Cc1cc(NC(=O)c2ccccc2-n2cnc(Cn3nc(-c4ccc(Cl)cc4)n(C[C@H](O)C(F)(F)F)c3=O)n2)cnc1F [Example 250, 2-[3-({3-(4-Chlorophenyl)-5-oxo-4-[(2S)-3,3,3-trifluoro-2-hydroxypropyl]-4,5-dihydro-1H-1,2,4-triazol-1-yl}methyl)-1H-1,2,4-triazol-1-yl]-N-(6-fluoro-5-methylpyridin-3-yl)benzamide]"
81.5 nM,8.85 nM,9.2,"O=C(Nc1nncs1)c1ccccc1-n1cnc(Cn2nc(-c3ccc(Cl)cc3)n(C[C@H](O)C(F)(F)F)c2=O)n1 [Example 251, 2-[3-({3-(4-Chlorophenyl)-5-oxo-4-[(2S)-3,3,3-trifluoro-2-hydroxypropyl]-4,5-dihydro-1H-1,2,4-triazol-1-yl}methyl)-1H-1,2,4-triazol-1-yl]-N-(1,3,4-thiadiazol-2-yl)benzamide]"
255 nM,7.6 nM,33.6,"N#CCNC(=O)c1ccccc1-n1cnc(Cn2nc(-c3ccc(Cl)cc3)n(C[C@H](O)C(F)(F)F)c2=O)n1 [Example 252, 2-[3-({3-(4-Chlorophenyl)-5-oxo-4-[(2S)-3,3,3-trifluoro-2-hydroxypropyl]-4,5-dihydro-1H-1,2,4-triazol-1-yl}methyl)-1H-1,2,4-triazol-1-yl]-N-(cyanomethyl)benzamide]"
365 nM,5.7 nM,64.0,"O=C(NCc1cccs1)c1ccccc1-n1cnc(Cn2nc(-c3ccc(Cl)cc3)n(C[C@H](O)C(F)(F)F)c2=O)n1 [Example 253, 2-[3-({3-(4-Chlorophenyl)-5-oxo-4-[(2S)-3,3,3-trifluoro-2-hydroxypropyl]-4,5-dihydro-1H-1,2,4-triazol-1-yl}methyl)-1H-1,2,4-triazol-1-yl]-N-(thiophen-2-ylmethyl)benzamide]"
225 nM,1.33 nM,169.8,"O=C(Nc1cncc(F)c1)c1ccccc1-n1cnc(Cn2nc(-c3ccc(Cl)cc3)n(C[C@H](O)C(F)(F)F)c2=O)n1 [Example 255, 2-[3-({3-(4-Chlorophenyl)-5-oxo-4-[(2S)-3,3,3-trifluoro-2-hydroxypropyl]-4,5-dihydro-1H-1,2,4-triazol-1-yl}methyl)-1H-1,2,4-triazol-1-yl]-N-(5-fluoropyridin-3-yl)benzamide]"
13 nM,3.6 nM,3.6,"Cc1cnc(NC(=O)c2ccccc2-n2cnc(Cn3nc(-c4ccc(Cl)cc4)n(C[C@H](O)C(F)(F)F)c3=O)n2)s1 [Example 256, 2-[3-({3-(4-Chlorophenyl)-5-oxo-4-[(2S)-3,3,3-trifluoro-2-hydroxypropyl]-4,5-dihydro-1H-1,2,4-triazol-1-yl}methyl)-1H-1,2,4-triazol-1-yl]-N-(5-methyl-1,3-thiazol-2-yl)benzamide]"
150 nM,6.05 nM,24.8,"O=C(Nc1ccncn1)c1ccccc1-n1cnc(Cn2nc(-c3ccc(Cl)cc3)n(C[C@H](O)C(F)(F)F)c2=O)n1 [Example 257, 2-[3-({3-(4-Chlorophenyl)-5-oxo-4-[(2S)-3,3,3-trifluoro-2-hydroxypropyl]-4,5-dihydro-1H-1,2,4-triazol-1-yl}methyl)-1H-1,2,4-triazol-1-yl]-N-(pyrimidin-4-yl)benzamide]"
81.5 nM,1.9 nM,42.9,"O=C(Nc1ccccc1Cl)c1ccccc1-n1cnc(Cn2nc(-c3ccc(Cl)cc3)n(C[C@H](O)C(F)(F)F)c2=O)n1 [Example 258, N-(2-Chlorophenyl)-2-[3-({3-(4-chlorophenyl)-5-oxo-4-[(2S)-3,3,3-trifluoro-2-hydroxypropyl]-4,5-dihydro-1H-1,2,4-triazol-1-yl}methyl)-1H-1,2,4-triazol-1-yl]benzamide]"
55 nM,2.5 nM,22.0,"Cc1csc(NC(=O)c2ccccc2-n2cnc(Cn3nc(-c4ccc(Cl)cc4)n(C[C@H](O)C(F)(F)F)c3=O)n2)n1 [Example 259, 2-[3-({3-(4-Chlorophenyl)-5-oxo-4-[(2S)-3,3,3-trifluoro-2-hydroxypropyl]-4,5-dihydro-1H-1,2,4-triazol-1-yl}methyl)-1H-1,2,4-triazol-1-yl]-N-(4-methyl-1,3-thiazol-2-yl)benzamide]"
